Square brackets hold non-standard residues; d marks the D form. Peptide text beside a SMILES is read from it. * marks the point of attachment. dNMePhg = CN[C@@H](C(=O)O)c1ccccc1; dHpg = N[C@@H](C(=O)O)c1ccc(O)cc1; dChg = N[C@@H](C(=O)O)C1CCCCC1; dPhg = N[C@@H](C(=O)O)c1ccccc1; Boc = CC(C)(C)OC(=O)*
Key:
bovine thrombin [1] = biological target: T1, bovine thrombin (Bos taurus, UniProt P00735); experiment: Inhibition of thrombin amidase activity (chromogenic substrate), bovine thrombin; format: biochemical; settings: apparent equilibrium constant inhibitor-thrombin, mean over a range of concentrations
T1 construct: 25 μl of bovine thrombin solution (0.21 mg/ml of thrombostat powder); purchased thrombostat powder
Protocol: The data in the table were obtained in an assay in which thrombin hydrolyzes the chromogenic substrate, N-benzoyl-D-phenylalanyl-L-valyl-L-arginyl-p-nitroanilide.
The assay was carried out in 50 μl buffer (0.03M Tris, 0.15M NaCl, pH 7.4) with 25 μl of bovine thrombin solution (0.21 mg/ml of thrombostat powder in 0.06M Tris, 0.3M NaCl, pH 7.4) and 150 μl of an aqueous solution of the chromogenic substrate at a concentration of 0.25 mg/ml. Solutions of test compound (25 μl) at various concentrations were added. […] Standard curves were constructed by plotting free thrombin concentration against hydrolysis rate. […] The amount of free inhibitor in each assay was calculated by subtracting the number of moles of bound thrombin from the number of moles of added inhibitor (test compound).
Kass was calculated for a range of concentrations of compounds and the mean value is reported in units of liter per mole.

[2] = tested on: plasma coagulation (thromboplastin); experiment: Plasma coagulation assay: prothrombin time; format: biochemical
Protocol: The numerical values in the table are the concentrations of the test compounds (ng/ml) required to prolong coagulation by 2-fold in the three tests. The thrombin time evaluation was carried out in plasma and separately determined in a buffer system at pH 7.5.
(§1) The data presented in Table 2 were obtained using a CoaScreener instrument from Tecan, Inc. in the assay protocols listed below.
50 μl thromboplastin (Dade)

[3] = tested on: plasma coagulation (Actin, CaCl2); experiment: Plasma coagulation assay: APTT (activated partial thromboplastin time); format: biochemical
Protocol: (§2) The anticoagulant activity of the compounds of the invention has been determined in standard tests. The following Table 2 presents the data obtained with representative compounds of the invention in tests used to determine prothrombin time, thrombin time and activated partial thromboplastin time (APTT). The numerical values in the table are the concentrations of the test compounds (ng/ml) required to prolong coagulation by 2-fold in the three tests. The thrombin time evaluation was carried out in plasma and separately determined in a buffer system at pH 7.5.
as §1

bovine thrombin [4] = biological target: T1, bovine thrombin; experiment: Plasma coagulation assay: thrombin time; format: biochemical
Protocol: as §2, §1
50 μl bovine thrombin (2 NIH

bovine thrombin [5] = biological target: T1, bovine thrombin; experiment: Thrombin time in buffer (fibrinogen instead of plasma); format: biochemical; settings: Buffer (pH 7.5)
Protocol: as §2, §1
In the Thrombin Time determined in pH 7.4 buffer fibrinogen was used instead of plasma.

[6] = tested on: arterial thrombosis in the carotid artery; experiment: Ferric chloride induced arterial thrombosis in the carotid artery of the rat; format: in vivo; settings: infusion from 15 min before to 60 min after FeCl3, NA = Not active at 4 mg/kg/h or at 7 mg/kg/h, the highest doses tested
Protocol: The antithrombotic activity of representative compounds of the invention was determined in in vivo tests carried out in the rat. The test employed induced arterial thrombosis in the carotid artery of the rat and measured the infusion dose of test compound required to maintain blood flow for fifty minutes past the time of occlusion. The test was performed as follows.
Arterial thrombosis was induced in the rat by injury of the carotid artery. Topical application of a ferric chloride solution was used to injure the vessel. Male Sprague-Dawley rats (375-450 g) were anesthetized with xylazine (20 mg/kg, s.c.) followed by ketamine HCl (100 mg/kg, s.c.). Animals were laid on a water blanket in which the circulated water was maintained at 37° C. The carotid artery was approached through a midline cervical incision. Careful blunt dissection was used to expose and isolate the vessel from the carotid sheath. A silk suture was pulled underneath the artery to lift the vessel to provide clearance to insert a thermocouple underneath it. […] Small forceps were used to dip discs (3 mm dia) of Whatman No. 1 filter paper into a FeCl3 solution (35%). The discs were cut to equal size using sharpened stainless steel tubing (3 mm i.d.) chucked in a drill press. A saturated disc was placed on each carotid artery above the thermocouple. The time between FeCl3 application and the time at which temperature decreased abruptly was recorded as time to occlusion (TTO) of the vessel. The average time required for both vessels to occlude was used to represent TTO for each animal.
Test compounds were dissolved in isotonic saline. […]
The association between vessel occlusion and the abrupt temperature decrease was established by simultaneously recording the temperature and blood flow on the same recorder. […] Baseline temperature and flow velocity (determined with a Directional Pulsed Doppler Flowmeter, Model 545-C, University of Iowa Bioengineering) were recorded before application of 35% ferric chloride. […]

Row | Compound | Thrombin Amidase Kass × 10^6 (bovine thrombin [1]) | Thrombin Time: concentration required to prolong coagulation by 2fold (bovine thrombin [4]) [ng/mL] | Thrombin Time: concentration required to prolong coagulation by 2fold (bovine thrombin [5]) [ng/mL] | Prothrombin Time: concentration required to prolong coagulation by 2fold [2] [ng/mL] | APTT: concentration required to prolong coagulation by 2fold [3] [ng/mL] | ED50: infusion dose required to maintain blood flow for 50 min [6] [mg/kg/h]
1 | CC[C@@H](C(=O)N1CCC[C@H]1C(=O)N[C@H](C=O)CCCNC(=N)N)c1ccccc1 [(R)-α-Ethylphenylacetyl] | 7 × 10^6 1/mole | 115 |  |  |  | 
2 | CO[C@@H](C(=O)N1CCC[C@H]1C(=O)N[C@H](C=O)CCCNC(=N)N)c1ccccc1 [(R)-α-Methoxyphenylacetyl] | 4 × 10^6 1/mole | 139 | 173 |  | > 909 | 
3 | CC(=O)O.CC(=O)O.CC(C)(C)OC(=O)N[C@@H](C(=O)N1CCC[C@H]1C(=O)N[C@H](C=O)CCCNC(=N)N)c1ccc2ccccc2c1 [Boc-D-2-naphthylglycyl, N-Boc-D-2-naphthylglycyl-Pro-Arg-H diacetate] | 22 × 10^6 1/mole | 230 | 142 | 1200 | 1200 | 
4 | CC(C)(C)OC(=O)NC(C(=O)N1CCCC1C(=O)NC(C=O)CCCN=C(N)N)c1cccs1 [Boc-D-2-thienylglycyl] | 14 × 10^6 1/mole |  |  |  |  | 
5 | CC(=O)O.CC(=O)O.CC(C)(C)OC(=O)N[C@@H](C(=O)N1CCC[C@H]1C(=O)N[C@H](C=O)CCCNC(=N)N)c1ccc(O)cc1 [Boc-D-(4-hydroxy)phenylglycyl, N-Boc-D-(4-hydroxyphenylglycyl)-Pro-Arg-H diacetate] (Boc-[dHpg]-Pro-Arg-aldehyde) | 115 × 10^6 1/mole | 182 |  | 1636 | 1091 | 
6 | COc1ccc2cc([C@@H](NC(=O)OC(C)(C)C)C(=O)N3CCC[C@H]3C(=O)N[C@H](C=O)CCCNC(=N)N)ccc2c1 [Boc-D-(6-methoxy)-2-naphthylglycyl] | 6 × 10^6 1/mole | 460 | 466 | 35489 | 2239 | 
7 | CC(C)(C)OC(=O)NC(C(=O)N1CCCC1C(=O)NC(C=O)CCCN=C(N)N)c1ccc(F)cc1 [Boc-D-Phg(4-Fluoro)] | 44 × 10^6 1/mole |  |  |  |  | 
8 | CC(C)(C)OC(=O)N[C@@H](C(=O)N1CCC[C@H]1C(=O)N[C@H](C=O)CCCNC(=N)N)C1CCCCC1 [Boc-D-cyclohexylglycyl] (Boc-[dChg]-Pro-Arg-aldehyde) | 120 × 10^6 1/mole | 79 | 60 | 522 | 748 | 
9 | CC(C)(C)OC(=O)NC(Cc1ccccc1)C(=O)N1CCCC1C(=O)NC(C=O)CCCN=C(N)N [Boc-D-phenylalanyl, reference compound] | 21 × 10^6 1/mole |  |  |  |  | 
10 | CC(C)(C)OC(=O)N[C@@H](C(=O)N1CCC[C@H]1C(=O)N[C@H](C=O)CCCNC(=N)N)c1ccccc1.CC(C)(C)OC(=O)N[C@@H](C(=O)N1CCC[C@H]1C(=O)N[C@H](C=O)CCCNC(=N)N)c1ccccc1.O=S(=O)(O)O [Boc-D-phenylglycyl (sulfate salt), N-Boc-D-Phenylglycyl-L-Prolyl-L-Arginine aldehyde (Boc-D-Phg-Pro-Arg-H) hemisulfate] (Boc-[dPhg]-Pro-Arg-aldehyde) | 107 × 10^6 1/mole |  |  |  |  | 
11 | N=C(N)NCCC[C@@H](C=O)NC(=O)[C@@H]1CCCN1C(=O)[C@H]1CC2CCCCC2CN1.O=S(=O)(O)O (stereo partly drawn) [D-1,2,3,4,6,7,8-Perhydroisoquinolin-3-carbonyl-L-prolyl-L-arginal (sulfate)] | 25 × 10^6 1/mole |  |  |  |  | 
12 | N=C(N)NCCC[C@@H](C=O)NC(=O)[C@@H]1CCCN1C(=O)[C@@H]1NCCc2ccccc21.O=S(=O)(O)O [D-1,2,3,4-Tetrahydroisoquinolin-1-carbonyl-L-Prolyl-L-Arginine Aldehyde Sulfate] | 113 × 10^6 1/mole |  |  |  |  | 
13 | N^α -acetyl-1-aminocyclohexane-1-carbonyl-L-prolyl-L-arginine Aldehyde (Hydrochloride) | 0.2 × 10^6 1/mole |  |  |  |  | 
14 | N^α -ethylcarbamate-1-amino-1-cyclohexane-carbonyl-L-prolyl-L-arginine Aldehyde (Hydrochloride) | 1.5 × 10^6 1/mole |  |  |  |  | 

The next lines start with results.

Row | Thrombin Amidase Kass × 10^6 (bovine thrombin [1]) | Thrombin Time: concentration required to prolong coagulation by 2fold (bovine thrombin [4]) [ng/mL] | Thrombin Time: concentration required to prolong coagulation by 2fold (bovine thrombin [5]) [ng/mL] | Compound | Prothrombin Time: concentration required to prolong coagulation by 2fold [2] [ng/mL] | APTT: concentration required to prolong coagulation by 2fold [3] [ng/mL] | ED50: infusion dose required to maintain blood flow for 50 min [6] [mg/kg/h]
15 | 18 × 10^6 1/mole | 320 | 112 | CC(C)(C)OC(=O)NC(C(=O)N1CCC[C@H]1C(=O)N[C@H](C=O)CCCNC(=N)N)c1cccc2ccccc12 (mixture of isomers) [Boc-DL-1-naphthylglycyl] | 1136 | 2272 | 5.5
16 | 15 × 10^6 1/mole | 460 |  | COc1ccc([C@@H](NC(C)=O)C(=O)N2CCC[C@H]2C(=O)N[C@H](C=O)CCCNC(=N)N)cc1 [Acetyl-D-(4-methoxy)phenylglycyl] | 900 | 2600 | 
17 | 75 × 10^6 1/mole | 80 |  | COc1ccc([C@@H](NC(=O)OC(C)(C)C)C(=O)N2CCC[C@H]2C(=O)N[C@H](C=O)CCCNC(=N)N)cc1 [Boc-D-(4-methoxy)phenylglycyl] |  | 640 | 
18 | 6 × 10^6 1/mole |  |  | Cl.N=C(N)NCCC[C@@H](C=O)NC(=O)[C@@H]1CCCN1C(=O)[C@H]1Cc2ccccc2C(=O)N1 [D-1,2,3,4-tetrahydroisoquinolin-1-keto-3-carbonyl-L-prolyl-L-arginine aldehyde (hydrochloride)] |  |  | 
19 | 75 × 10^6 1/mole | 91 |  | N=C(N)NCCC[C@@H](C=O)NC(=O)[C@@H]1CCCN1C(=O)[C@H](N)c1ccccc1 [D-Phenylglycyl] (H-[dPhg]-Pro-Arg-aldehyde) |  |  | 
20 | 80 × 10^6 1/mole | 92 | 67 | CN[C@@H](C(=O)N1CCC[C@H]1C(=O)N[C@H](C=O)CCCNC(=N)N)c1ccccc1 [N^α -Methyl-D-phenylglycyl (sulfate), N-methyl-D-phenylglycyl-L-prolyl-L-arginine aldehyde] (H-[dNMePhg]-Pro-Arg-aldehyde) | 899 | > 909 | 

— US5430023A, “Tripeptide antithrombotic agents” (Eli Lilly and Company, priority 1993, dated 1995)
